# From patent publication US12622878B2, “Cationic lipid having cystine skeleton” (NOF CORPORATION, priority 2020, dated 2026)
# Experiments:
# [1] = Measurement of Liposomal pKa (TNS fluorescence) of LNP without nucleic acid; type: physicochemical; settings: cationic lipid:DOPC:Chol=52.5:7.5:40 + about 1.5 mol DMG-PEG2k, pH at which relative TNS fluorescence intensity was 50%
# Experimental: Lipid nano particles (LNP) without containing nucleic acid were used for the evaluation of Liposomal pKa.
# (§1) A 10 mM ethanol solution of cationic lipid, a 5 mM ethanol solution of DOPC, and a 10 mM ethanol solution of Chol were mixed at desired ratio (cationic lipid:DOPC:Chol=52.5:7.5:40 (molar ratio)) in an Eppendorf tube to achieve the total lipid amount of 720 nmol. To the obtained mixture was further added DMG-PEG2k (2 mM ethanol solution) in an amount of about 1.5 mol with respect to the total amount 100 mol of cationic lipid, DOPC, and Chol, and then ethanol was added to prepare an ethanol solution of the lipid (total amount: 360 μL).
# (§2) An acidic malic acid buffer (20 mM, pH 3.0) (1080 μL) containing NaCl at a final concentration of 30 mM and an ethanol solution (360 μL) of lipid were each weighed in a syringe. Using an ultra high-speed nanomedicament producing apparatus NanoAssmblr (manufactured by Precision NanoSystems), LNP was prepared under the conditions of addition rate of acidic buffer solution: 3 mL/min, addition rate of ethanol solution of lipid: 1 mL/min, and syringe holder temperature: 25° C., and collected in a 15 mL tube. MES buffer (pH 6.5) (3000 μL) was added to the 15 mL tube, the obtained mixture was transferred to Amicon Ultra 4, and ultrafiltration was performed under centrifugation conditions (25° C., 1000 g, 6 min) to concentrate the mixture to about 100 μL. The obtained concentrate was diluted with PBS to 4 mL, and the mixture was concentrated again under centrifugation conditions (25° C., 1000 g, 6 min), and this operation was performed twice. The obtained concentrate was diluted with PBS to a lipid concentration of 0.5 mM to give a dispersion containing LNP.
# 20 mM Citrate buffer, sodium phosphate buffer, and tris HCl buffer, each containing NaCl at a final concentration of 150 mM and adjusted to various pHs within the range of pH 3.0 to 10.0, were prepared. TNS (manufactured by Sigma) was diluted with ultrapure water to 0.6 mM. TNS solution (2 μL), dispersions (12 μL) containing LNP prepared in [Experimental Example 1], 1, and buffers adjusted to various pHs (186 μL) were added to a black 96 well plate. The plate was protected from light and shaken at 400 rpm for 10 min. The fluorescence intensity (excitation: 321 nm/emission: 447 nm) was measured using a plate reader (manufactured by TECAN). The relative fluorescence intensity was calculated as a percentage, with the maximum value of the fluorescence intensity in each LNP being 100% and the minimum value being 0%. Furthermore, the pH at which the relative fluorescence intensity was 50% was taken as Liposomal pKa.
# HeLa cells = test: In vitro gene expression (luciferase mRNA) in HeLa cells; type: cell-based, human; settings: FLuc mRNA-encapsulating LNP, 0.4 μg mRNA, FIG. 3
# Experimental: (§3) LNP encapsulating mRNA (CleanCap (registered trade mark) FLuc mRNA (TriLink)) that expresses luciferase (cationic lipid:DOPC:Chol:DMG-PEG2k=55:5:40:1 (molar ratio)) was prepared by the method described in [Experimental Example 2], 1.
# HeLa cells, which are human cervical cancer cells, were seeded in a 3.5 cm dish at 5.0×10^4 cells/2 mL/Dish 24 hours before transfection. After 24 hours, the medium was exchanged with a culture medium (D-MEM) containing 0.1 mM D-luciferin. Prepared mRNA-encapsulating LNP was diluted with PBS such that the concentration of mRNA was 8 μg/mL. The diluted mRNA-encapsulating LNP solution (50 μL, mRNA: 0.4 μg) was added to the 3.5 cm dish and set in an incubator luminometer KronosDio. The luminescence intensity of luciferase was measured for 2 min every one hour. The cumulative luciferase luminescence intensity for 24 hr was calculated from the obtained time change of expression. For example, “1.0E+06” means “1.0×10^6”.
# BALB/c mouse = test: In vivo gene expression (luciferase mRNA), organ luminescence by IVIS; settings: tail vein, 0.05 mg mRNA per kg, 4.5 hr after administration, liver and spleen, FIG. 2
# Experimental: as §3
# The prepared each mRNA-encapsulating LNP dispersion was administered from the tail vein of BALB/c mouse (male, 5-week-old). The dose of mRNA was set to 0.05 mg per 1 kg body weight of the mouse, and the dose of the mRNA-encapsulating LNP dispersion was set to 10 μL per 1 g body weight of the mouse. After 4.5 hr from the administration of the mRNA-encapsulating LNP dispersion, a PBS solution of D-luciferin potassium was administered into the abdominal cavity of the mouse. The dose of D-luciferin potassium was set to 3 mg per mouse, and the dose of the PBS solution of D-luciferin potassium was set to 200 μL per mouse. After 15 min from the administration of the PBS solution of D-luciferin potassium, the mouse was euthanized, and the liver, spleen, kidney, heart, and lung were isolated. The luminescence in each organ was quantified using an in vivo imaging system (IVIS) with an exposure of 10 sec. The amount of luminescence in each organ was quantified by image analysis using Live Imaging software attached to IVIS. The amount of luminescence (photons/sec) was calculated from the acquired image and used as an index of gene expression activity. […]
# [2] = Particle size, PdI and zeta potential of mRNA-encapsulating LNPs by dynamic light scattering; type: physicochemical; settings: FLuc mRNA-encapsulating LNP, cationic lipid:DOPC:Chol=55:5:40 + about 1 mol DMG-PEG2k; for PdI / particle size: dynamic light scattering; for zeta potential: physiological pH
# Experimental: as §1, with “lipid:DOPC:Chol=55:5:40” for “lipid:DOPC:Chol=52.5:7.5:40”, “1” for “1.5”
# An acidic buffer solution (total amount: 1080 μL) of nucleic acid was prepared by weighing 7.2 μg of mRNA solution (0.6 mg/mL) (CleanCap (registered trade mark) FLuc mRNA (TriLink)) in a 5 mL tube and adding acidic malate buffer (20 mM, pH 3.0) containing NaCl at a final concentration of 30 mM.
# as §2, with “buffer solution of nucleic” for “malic”, “acid” for “acid buffer (20 mM, pH 3.0) (1080 μL) containing NaCl at a final concentration of 30 mM”, “solution” for “solution (360 μL)”, “solution of nucleic acid:” for “solution:”, “2” for “0.5”
# The particle size, PdI (Polydispersity Index, Polydispersity), and zeta potential of the mRNA-encapsulating LNP prepared by the method of the above-mentioned 1 were measured by a dynamic light scattering method.
# Jurkat cells = test: In vitro gene expression (luciferase mRNA) in Jurkat cells; type: cell-based, human; settings: FLuc mRNA-encapsulating LNP, 0.4 μg mRNA, FIG. 1
# Experimental: as §3
# Jurkat cells, which are human leukemia T cells, were seeded in a 3.5 cm dish at 2.0×10^5 cells/1.8 mL/Dish 24 hours before transfection. After 24 hr, a medium (RPMI1640) (200 μL) supplemented with D-luciferin was added to the dish at final concentration of 0.1 mM. Each mRNA-encapsulating LNP dispersion (40 to 120 μL) (0.4 μg as mRNA) was added to the aforementioned dish, and the aforementioned dish was set in an incubator luminometer KronosDio. The luminescence intensity of luciferase was measured for 2 min every three hours. The cumulative luciferase luminescence intensity for 24 hr was calculated from the obtained time change of expression. For example, “5.0E+05” means “5.0×10^5”.
Structure (SMILES),pKa [1],PdI [2],particle size [2] [nm],zeta potential [2] [mV],gene expression activity (cumulative luciferase luminescence intensity for 24 hr) (HeLa cells),gene expression activity (amount of luminescence in organ) (BALB/c mouse),gene expression activity (cumulative luciferase luminescence intensity for 24 hr) (Jurkat cells)
CCCCCCCC/C=C\CCCCCCCC(=O)Oc1ccc(CC(=O)OCCOC(=O)C(CSSCC(NC(=O)CN(C)CC)C(=O)OCCOC(=O)Cc2ccc(OC(=O)CCCCCCC/C=C\CCCCCCCC)cc2)NC(=O)CN(C)CC)cc1 (stereo not drawn) [Example 2],6.4,0.073,82,−5.02,,,
CCCCCCCC/C=C\CCCCCCCC(=O)Oc1ccc(CC(=O)OCCOC(=O)C(CSSCC(NC(=O)CN(CCC)CCC)C(=O)OCCOC(=O)Cc2ccc(OC(=O)CCCCCCC/C=C\CCCCCCCC)cc2)NC(=O)CN(CCC)CCC)cc1 (stereo not drawn) [Example 5],5.3,0.162,112,−12.4,,,
CCCCCCCC/C=C\CCCCCCCC(=O)Oc1ccc(CC(=O)OCCOC(=O)C(CSSCC(NC(=O)CN2CCCCC2)C(=O)OCCOC(=O)Cc2ccc(OC(=O)CCCCCCC/C=C\CCCCCCCC)cc2)NC(=O)CN2CCCCC2)cc1 (stereo not drawn) [Example 7],6,0.080,126,−10.3,,,

# The next lines start with results.
pKa [1],PdI [2],particle size [2] [nm],zeta potential [2] [mV],Structure (SMILES),gene expression activity (cumulative luciferase luminescence intensity for 24 hr) (HeLa cells),gene expression activity (amount of luminescence in organ) (BALB/c mouse),gene expression activity (cumulative luciferase luminescence intensity for 24 hr) (Jurkat cells)
6.6,0.105,78,0.01,CCCCCCCC/C=C\CCCCCCCC(=O)Oc1ccc(CC(=O)OCCOC(=O)C(CSSCC(NC(=O)CN(C)C)C(=O)OCCOC(=O)Cc2ccc(OC(=O)CCCCCCC/C=C\CCCCCCCC)cc2)NC(=O)CN(C)C)cc1 (stereo not drawn) [Example 1],superior gene expression activity,superior gene expression activity in the liver and the spleen,superior gene expression activity
5.9,0.100,111,−11.2,CCCCCCCC/C=C\CCCCCCCC(=O)Oc1ccc(CC(=O)OCCOC(=O)C(CSSCC(NC(=O)CN(C)CCC)C(=O)OCCOC(=O)Cc2ccc(OC(=O)CCCCCCC/C=C\CCCCCCCC)cc2)NC(=O)CN(C)CCC)cc1 (stereo not drawn) [Example 3],,,
6.3,0.091,81,−7.78,CCCCCCCC/C=C\CCCCCCCC(=O)Oc1ccc(CC(=O)OCCOC(=O)C(CSSCC(NC(=O)CN(CC)CC)C(=O)OCCOC(=O)Cc2ccc(OC(=O)CCCCCCC/C=C\CCCCCCCC)cc2)NC(=O)CN(CC)CC)cc1 (stereo not drawn) [Example 4],,,
